Format in all cases: cell-based
The subject of test [1] is SK-MEL-5 (human melanoma). The test is described as follows: MTT cytotoxicity assay, SK-MEL-5. As to conditions: for IC50: MTT, 24 h treatment, mean ± SD; for Selectivity index SK-MEL-5 (column head IC50 (μM)): ratio of IC50 on MDCK cells to IC50 in SK-MEL-5. Here is the method: (§1) The potential cytotoxicity of the isolated anthraquinone derivatives was studied against various cancer cell lines, including SK-MEL-5 (human melanoma), B16F10 (murine melanoma) MCF7 (human breast adenocarcinoma), and MDA-MB-231 (human breast adenocarcinoma) and the normal cell line MDCK (normal kidney epithelial) using the MTT assay. All cell lines were cultured in DMEM medium supplemented with 10% foetal bovine serum (FBS) and streptomycin–penicillin (100 μg/ml each; Hyclone) in a 5% CO2 humidified incubator. An MTT assay was employed to determine the percentage of the viability of various cancer cells as well as MDCK cells. All cells were first cultured in 96-well plates (1 × 10^5 cells/mL for all cancerous cells and 5 × 10^5 cells/mL for MDCK cells) for 24 h, and treated with indicated concentration of isolated compounds (6.25–100 μM for cancerous cells and 6.25–400 μM for MDCK cells). Various dilutions of stock culture were made in the culture medium to get the final concentration of the sample with a 0.1% of DMSO concentration, including the control. After 24 h incubation, MTT reagent was added to each well and the plate was incubated at 37 °C for 1 h. After removing the medium, the plate was washed twice with PBS (pH 7.4). The intracellular insoluble formazan was dissolved in 100% DMSO. A microplate reader was used to measure the absorbance of each cell line at 570 nm, and the percentage of cell viability was calculated. The absorbance value for the average of wells of cells treated with each test sample concentration was expressed as a percentage of this control and the IC50 values for each sample on each cell line were calculated. The anti-cancer drug oxaloplatin was used as a positive control.
In general terms: Tetrazolium dyes change colour on reduction, which living cells bring about.

The subject of the next test is B16F10 (murine melanoma). The test is described as follows: MTT cytotoxicity assay, B16F10. As to conditions: for IC50: MTT, 24 h treatment, mean ± SD; for Selectivity index B16F10 (column head IC50 (μM)): ratio of IC50 on MDCK cells to IC50 in B16F10. The protocol: as §1
In test [2] the test system is MCF7 (human breast adenocarcinoma). Description: MTT cytotoxicity assay, MCF7. Particulars: for IC50: MTT, 24 h treatment, mean ± SD; for Selectivity index MCF7 (column head IC50 (μM)): ratio of IC50 on MDCK cells to IC50 in MCF7. The protocol: as §1
Test [3] deals with MDA-MB-231 (human breast adenocarcinoma). Description: MTT cytotoxicity assay, MDA-MB-231. As to conditions: for IC50: MTT, 24 h treatment, mean ± SD; for Selectivity index MDA-MB-231: ratio of IC50 on MDCK cells to IC50 in MDA-MB-231. Here is the method:
as §1

Test [4] concerns MDCK (normal kidney epithelial cells). Description: MTT cytotoxicity assay, normal cell line MDCK. Particulars: 24 h treatment, mean ± SD. The protocol:
as §1

Turning to `O=C1c2ccccc2C(=O)c2c1ccc(O)c2O` [Compound 3, alizarin], the IC50 (usually the point on the concentration scale where inhibition reaches its midpoint) amounted to 53.08 ± 0.3 µM in test [1] (Homo sapiens, SK-MEL-5); 98.8 ± 2.1 µM with B16F10 (murine melanoma) (Mus musculus, B16-F10); 49.2 ± 0.85 µM in test [2] (Homo sapiens, MCF7); 48.64 ± 0.33 µM in test [3] (Homo sapiens, MDA-MB-231); 199.3 ± 1.88 µM in test [4] (Canis lupus familiaris, MDCK).
Regarding `COCc1c(O)cc2c(c1O)C(=O)c1ccccc1C2=O` [Compound 5, lucidin-ω-methyl ether], the IC50 in test [1] (Homo sapiens, SK-MEL-5) came out at 42.8 ± 1.32 µM; with B16F10 (murine melanoma) (Mus musculus, B16-F10), 29.5 ± 2.61 µM; in test [2] (Homo sapiens, MCF7), 24.1 ± 1.06 µM; in test [3] (Homo sapiens, MDA-MB-231) it was 13 ± 0.33 µM; in test [4] (Canis lupus familiaris, MDCK), 79.01 ± 0.03 µM. In addition, the “Selectivity index SK-MEL-5 (column head IC50 (μM))” value in test [1] is listed as 1.85. In the test with B16F10 (murine melanoma), the “Selectivity index B16F10 (column head IC50 (μM))” value (from here on “Selectivity index B16F10”) is listed as 2.68. In test [2], the “Selectivity index MCF7 (column head IC50 (μM))” value (“Selectivity index MCF7” for short) was 3.28. Moreover, in test [3], the “Selectivity index MDA-MB-231” value worked out at 6.06.
For the molecule `Cc1c(O)cc2c(c1O)C(=O)c1ccc(O)cc1C2=O` [Compound 2, 2-methyl-1,3,6-trihydroxy-9,10-anthraquinone], the IC50 in test [1] (Homo sapiens, SK-MEL-5) was 46.8 ± 1.39 µM; with B16F10 (murine melanoma) (Mus musculus, B16-F10), 77.88 ± 0.34 µM; in test [2] (Homo sapiens, MCF7) it was 80 ± 1.14 µM; in test [3] (Homo sapiens, MDA-MB-231) it was 59.22 ± 0.4 µM; in test [4] (Canis lupus familiaris, MDCK), 168.8 ± 0.61 µM. For the same molecule, the “Selectivity index SK-MEL-5 (column head IC50 (μM))” value in test [1] amounted to 3.61. In addition, the “Selectivity index B16F10” value in the test with B16F10 (murine melanoma) is reported as 2.17. The “Selectivity index MCF7” value in test [2] is listed as 2.11. Further, in test [3], the “Selectivity index MDA-MB-231” value was 2.85.
As for `O=C1[O][Pt]2([NH][C@@H]3CCCC[C@H]3[NH]2)[O]C1=O` [Oxaloplatin, oxaloplatin, reference compound], the IC50 in test [1] came to 14.2 ± 1.02 µM; in the test with B16F10 (murine melanoma) it was 10.5 ± 0.92 µM; in test [2] it was 8.59 ± 1.22 µM; in test [3], 7.95 ± 1.92 µM; in test [4] it was 24 ± 1.04 µM.
As to `CC(=O)OC[C@H]1O[C@@H](Oc2cc3c(c(O)c2C)C(=O)c2ccc(O)cc2C3=O)[C@H](O[C@H]2O[C@@H](C)[C@H](O)[C@@H](O)[C@H]2O)[C@@H](O)[C@@H]1O` [Compound 1, 2-methyl-1,3,6-trihydroxy-9,10-anthraquinone-3-O-(6′-O-acetyl)-α-rhamnosyl(1 → 2)-β-glucoside], the IC50 in test [1] (Homo sapiens, SK-MEL-5) was determined as 91 ± 1.88 µM; in the test with B16F10 (murine melanoma) (Mus musculus, B16-F10) it was 48.68 ± 0.1 µM; in test [2] (Homo sapiens, MCF7), 65.5 ± 1.1 µM; in test [3] (Homo sapiens, MDA-MB-231) it was 49.4 ± 0.78 µM; in test [4] (Canis lupus familiaris, MDCK), 192.3 ± 0.49 µM. The “Selectivity index SK-MEL-5 (column head IC50 (μM))” value in test [1] worked out at 2.11. In addition, in the test on B16F10 (murine melanoma), the “Selectivity index B16F10” value was 3.95. In test [2], the “Selectivity index MCF7” value is on record as 2.94. Besides, the “Selectivity index MDA-MB-231” value in test [3] came out at 3.89.
For `O=C1c2ccccc2C(=O)c2c(O)cc(O)cc21` [Compound 4, xanthopurpurin], the IC50 in test [1] (Homo sapiens, SK-MEL-5) stood at 21.4 ± 0.99 µM; with B16F10 (murine melanoma) (Mus musculus, B16-F10), 23.7 ± 1.71 µM; in test [2] (Homo sapiens, MCF7), 15.8 ± 1 µM; in test [3] (Homo sapiens, MDA-MB-231) it was 14.7 ± 1.45 µM; in test [4] (Canis lupus familiaris, MDCK), 67.9 ± 1.02 µM.

Source of the values: article PMC6029275, “Cytotoxic properties of the anthraquinone derivatives isolated from the roots of Rubia philippinensis” (BMC Complementary and Alternative Medicine, 2018).
